From patent US7091351B2, “Vanadium compounds for treating cancer” (Parker Hughes Institute, priority 1998, dated 2006)

Assays:
Type in all cases: cell-based, human
[1] = test system: Tera-2 testicular cancer cells; experiment: Flow cytometric TUNEL apoptosis assay, TERA-2 cells; conditions: 24 h, TUNEL-positive nuclei
Description: (§1) A flow cytometric two-color terminal […] transferase (TdT)-mediated digoxigenin-uridine triphosphate (dUTP) nick-end labeling assay (TUNEL) was employed to detect apoptotic nuclei. Gavrieli, Y., Sherman, Y., Ben-Sasson, S. A. Identification of programmed cell death in situ via specific labeling of nuclear DNA fragmentation. J. Cell Biol., 119: 493–501, 1992. Exponentially growing cells (10^6/ml) were incubated in DMSO alone (0.1%) or treated with 100 μM each of the 16 vanadocenes (VDB, VDC, VMDC, VDI, VDA, VDCN, VDOCN, VDSCN, VDSeCN, VDT, VDCO, VDFe, VD(acac), VDH, VD(dpy), and VD(dtc) in 0.1% DMSO for 24 h. Cells were washed in PBS, fixed in 4% paraformaldehyde in PBS for 15 min on ice. Following two washings in PBS, they were permeabilized with 0.1% Triton X-100 in 0.1% sodium citrate for 2 min on ice, and washed twice in PBS. Labeling of exposed 3′-hydroxyl (3′-OH) ends of fragmented nuclear DNA was performed using TdT and fluorescein isothiocyanate (FITC)-conjugated dUTP according to the manufacturer's recommendations (Boehringer Mannheim, Indianapolis, Ind.). Cells were counterstained with 5 μg/ml PI. Control samples included: (i) untreated cells; (ii) cells incubated with the reaction mixture without the TdT enzyme. Cells were analyzed with a FACS Calibur flow cytometer (Becton Dickinson, Mountain View, Calif.). Relative DNA content (PI) was detected with band-pass filter 585/42, and dUTP incorporation (FITC) was detected with band-pass filter 530/30. Fluorescence was compensated for in the acquisition software using single-label control samples. Data were acquired in listmode, gated to 10,000 events per sample, and analyzed with the use of CELLQuest software program (Becton Dickinson). […] Vanadocene-induced apoptosis is shown by an increase in the number of cells staining with FITC-dUTP. The M1 and M2 gates were used to demarcate non-apoptotic and apoptotic PI-counterstained cell populations, respectively. TUNEL assays were performed using two testicular cell lines Tera-2 and Ntera-2 following exposure to each of the 16 vanadocenes. In other experiments, MC540 binding (as an early marker of apoptosis) and PI permeability (as a marker of advanced stage apoptosis) were simultaneously measured in human cancer cells 24 hours after exposure to vanadocenes, as previously described. Uckun, F. M., Narla, R. K., Jun, X., Zeren, T., Venkatachalam, T., Waddick, K. G., Rostostev, A., Myers, D. E. Cytotoxic activity of EGF-genstein against breast cancer cells. Clin. Cancer Res. 4:901–912, 1998. Vassilev, A., Ozer, Z., Navara, C., Mahajan, S., and Uckun, F. M. Bruton's tyrosine kinase as an inhibitor of the Fas/CD95 death-inducing signaling complex. J. Biol. Chem. 274:1646–56, 1999. Whole cells were analyzed using a FACStar Plus flow cytometer (Becton Dickinson, San Jose, Calif.). All analyses were done using 488 nm excitation from an argon laser. MC540 and PI emissions were split with a 600 nm short pass dichroic mirror and a 575 nm band pass filter was placed in front of one photomultiplier tube to measure MC540 emission and a 635 nm band pass filter was used for PI emission.

[2] = test system: Ntera-2 testicular cancer cells; experiment: Flow cytometric TUNEL apoptosis assay, NTERA-2 cells; conditions: 24 h, TUNEL-positive nuclei
Description: as §1

NALM-6 cells [3] = experiment: MTT cytotoxicity assay of oxovanadium(IV) compounds, NALM-6; conditions: 48 hr
Description: The cytotoxicity of oxovanadium (W) complexes listed in Table 6 were tested against 9 different human cancer cell lines was performed using the MTT (3-[4,5-dimethylthiazol-2-yl]-2,5-diphenyl tetrazolium bromide) assay (Boehringer Mannheim Corp., Indianapolis, Ind.) as described previously (20). Briefly, exponentially growing tumor cells were seeded into a 96-well plate at a density of 4×10^4cells/well and incubated with medium containing the oxovanadium(IV) compounds concentrations ranging from 0.1 to 250 μM for 48 hours at 37° C. in a humidified 5% CO2 atmosphere. Triplicate wells were used for each treatment. To each well, 10 μl of MTT (0.5 mg/ml final concentration) was added and the plates were incubated at 37° C. for 4 hours to allow MTT to form formazan crystals by reacting with metabolically active cells . The formazan crystals were solubilized overnight at 37° C. in a solution containing 10% SDS in 0.01 M HCl. The absorbence of each well was measured in a microplate reader (Labsystems) at 540 nm and a reference wavelength of 690 nm. To translate the OD540 values into the number of live cells in each well, the OD540 values were compared to those on standard OD540—versus—cell number curves generated for each cell line. The percent survival was calculated using the formula: % survival=Live cell number[test]/Live cell number [control]×100. The IC50 values were calculated by non-linear regression analysis using an Graphpad Prism software version 2.0 (Graphpad Software, Inc., San Diego, Calif.).

NALM-6 cells [4] = experiment: Mitochondrial mass determination, NAO staining; conditions: 0.1-1 μM, 24-96 hr
Description: Relative mitochondrial mass was measured by using Becton Dickinson Calibur flow cytometry and the fluorescent stain 10-n-nonyl-acridine orange (NAO), which binds the mitochondrial phospholipid cardiolipin, that has been extensively used to provide an index of mitochondrial mass (28). 1×10^6 compound 29-treated NALM-6 cells at concentrations of 0.1 μM to 1 μM for 24 hr, 48 hr, 72 hr, or 96 hr were incubated with 30 μM of NAO in complete medium for 10 min at room temp in the dark, washed with ice-cold PBS and analyzed using log scale photomultiplier to detect the green fluorescence at 527 nm. Relative change in the mitochondrial mass was measured using the mean fluorescence value of mitochondria of compound 29-treated and vehicle-treated cells.

Compound	% Apoptosis at 100 μM TERA-2 [1]	% Apoptosis at 100 μM NTERA-2 [2]	IC50 (NALM-6 cells [3]) [nM]	mitochondrial mass (NAO staining intensity, treated versus untreated) (NALM-6 cells [4])
[Cl-].[Cl-].[V+4].c1cc[cH-]c1.c1cc[cH-]c1 [VDC, VCp2Cl2]	88 (87, 89) %	35 (34, 34) %	–	–
bis(4,7-dimethyl-1,10-phenanthroline)sulfatooxovanadium(IV) [Compound 29]	–	–	200 ± 30	virtually identical staining intensity of NAO
